Patent US9487508B2, “SGC stimulators” (IRONWOOD PHARMACEUTICALS, INC., priority 2012, dated 2016)

Tested on: Thoracic aortic rings
Assay: Thoracic aortic rings assay (Example 5)
Parameters: species or system Sprague-Dawley rats
Conditions: rings contracted with 100 ng/mL phenylephrine
Protocol: Thoracic aortic rings were dissected from anesthetized (isoflurane) male Sprague-Dawley rats weighing 275-299 g. Tissues were immediately transferred to ice-cold Krebs-Henseleit solution, which had been aerated with 95% O2 and 5% CO2 for 30 minutes. Following removal of connective tissue, aortic sections were cut into 4 rings (˜2 mm each) and suspended on 2 L-shaped hooks, with one hook fixed at the bottom of the tissue bath (Schuler Organ Bath, Harvard Apparatus) and the other connected to a force transducer (F30 Force Transducer, Harvard Apparatus). Baths contained Krebs Henseleit solution (10 mL) heated to 37° C. and aerated with 95% O2 and 5% CO2. Rings were brought to an initial tension of 0.3-0.5 g and gradually raised to a resting tension of 1.0 g over 60 minutes. Rings were rinsed with Krebs Henseleit solution (heated to 37° C. and aerated with 95% 02 and 5% CO2) at 15 minute intervals until a stable baseline was obtained. Rings were considered to be stable after a resting tension of 1.0 g was maintained (for approximately 10 minutes) without need for adjustment. Rings were then contracted with 100 ng/mL phenylephrine by adding 100 uL of a 10 µg/mL phenylephrine stock solution. Tissues achieving a stable contraction were then treated in a cumulative, dose dependent manner with test compounds prepared in dimethylsulfoxide (DMSO). In some cases, tissues were rinsed three times over a 5 minute period with Krebs-Heinseleit's solution (heated to 37° C. and aerated with 95% 02 and 5% CO2), allowed to stabilize at baseline, and then used for characterization of other test articles or DMSO effects. All data were collected using the HSE-ACAD software provided by Harvard Apparatus. Percent relaxation effects were calculated in Microsoft Excel using the recorded tension value of 100 ng/mL phenylephrine treatment as 0% inhibition and treatment with 100 μM 3-isobutyl-1-methylxanthine as 100% inhibition. EC50 values were calculated from concentration-response curves generated with GraphPad Prism Software.
As an alternative thoracic aortic rings assay, the procedure of Example 5 was used except that percent relaxation effects were calculated in Microsoft Excel using the recorded tension value of 100 ng/mL phenylephrine treatment as 0% inhibition and, after washing the tissue with buffer, the original resting tension of the tissue was used as 100% inhibition.
The biological data for some of the compounds of Formula I or Formula Ib, in comparison with the known compound, BAY 41-2272, as the reference compound, determined by the thoracic aorta ring assay of Example 5 are presented in Table 6 below.

EC50 (Rattus norvegicus, read-out: Aortic Ring EC50): < 2000 nM
SMILES: Nc1ccnc(-n2cc(-c3ncco3)c(Cc3ccccc3F)n2)n1 [Compound I-2]
Aortic Ring Percent Relaxation at 1 μM (1 μM, resting tension = 100%): E (E = 60 or <80%)
Aortic Ring Percent Relaxation at 3 μM (3 μM, resting tension = 100%): F (F = 80 to <100%)
Aortic Ring Percent Relaxation at 10 μM (10 μM, resting tension = 100%): G (G = 100 to <120%)
